Experimental data from ChEMBL document CHEMBL1158299, “Effects on cultured neonatal mouse calvaria of the flavonoids isolated from Boerhaavia repens” (1996).
Activity calls are given as the source filed them. The rule behind the calls is not given here.

Columns and labels:
Details in all cases: Bone element
Bone [1] = experiment: Inhibition of bone resorption in mouse parietal bone culture assessed as 45Ca2 release into culture medium at 200 uM after 0 to 3 days by liquid scintillation counting; type: functional
Bone [2] = experiment: Inhibition of PTH-induced bone resorption in mouse parietal bone culture assessed as 45Ca2 release into culture medium at 200 uM after 4 to 6 days by liquid scintillation counting; type: functional
Bone [3] = experiment: Inhibition of bone resorption in mouse parietal bone culture assessed as 45Ca2 release into culture medium at 200 uM after 4 to 6 days by liquid scintillation counting; type: functional
Bone [4] = experiment: Inhibition of PTH-induced bone resorption in mouse parietal bone culture assessed as 45Ca2 release into culture medium at 200 uM by liquid scintillation counting; type: functional, tissue-based

SMILES | inhibition at 200 µM (Bone [1]) [%] | inhibition at 200 µM (Bone [2]) [%] | inhibition at 200 µM (Bone [3]) [%] | Activity (Bone [4])
COc1cc2oc(-c3ccc(O)cc3)c(O[C@@H]3O[C@H](CO)[C@H](O)[C@H](O)[C@H]3O)c(=O)c2c(O)c1OC | 20.6 | 55.3 | 23.1 | –
COc1c(O)cc2oc(-c3ccc(O)cc3)c(O[C@@H]3O[C@H](CO[C@@H]4O[C@@H](C)[C@H](O)[C@@H](O)[C@H]4O)[C@H](O)[C@H](O)[C@H]3O)c(=O)c2c1O | – | – | – | inactive
COc1cc2oc(-c3ccc(O)cc3)c(O[C@@H]3O[C@H](CO)[C@@H](O)[C@H](O)[C@H]3O[C@@H]3O[C@H](CO)[C@H](O)[C@H](O)[C@H]3O)c(=O)c2c(O)c1OC | 29.1 | 60.3 | 38 | –
